Here are results for six substances from US5952464A, “Labelled peptide compounds” (Mallinckrodt Inc., priority 1994, dated 1999).

Data set [1] addresses neurotensin receptor sites. The data set can be described thus: inhibition of [3H]neurotensin binding to guinea pig forebrain membranes. The procedure:
Binding assays are performed by studying the inhibition of [^3 H]neurotensin binding to guinea pig forebrain membranes. The following results are obtained, using the unlabelled acetyl compound […]-OH (SEQ ID NO:4) (a) as the reference.

The nature of data set [2]: enzymatic stability in vitro in human serum. It is filed as in vitro ADME. As to the method: The enzymatic stability of the four radioiodinated analogues (1), (2), (3) and (4) is determined in vitro in human serum in a conventional manner, showing that this stability is sufficient.
The conditions of data set [3]: cited from earlier work.
The target of data set [4] is human brain neurotensin receptors. Conditions: cited from earlier work.
In data set [5] the target is rat brain synaptic membranes. Conditions: binding on rat brain synaptic membranes; cited from earlier work.

“2-*I-benzoyl-^1 Arg-^2 Arg-^3 Pro-^4 Tyr-^5 Ile-^6 Leu-OH [(3)]”: the pIC50 in data set [1] worked out at 8.07. In data set [2], the enzymatic stability entry was “sufficient”.

In data set [1], “4-*I-benzoyl-^1 Arg-^2 Arg-^3 Pro-^4 Tyr-^5 Ile-^6 Leu-OH [(4)]” had a pIC50 of 8.10. The enzymatic stability entry in data set [2] was “sufficient”.

In data set [1], “(2-*I-phenyl)acetyl-^1 Arg-^2 Arg-^3 Pro-^4 Tyr-^5 Ile-^6 Leu-OH [(1)]” gave a pIC50 of 8.05. Besides, the enzymatic stability entry in data set [2] is “sufficient”.

For “(4*I-phenyl)acetyl-^1 Arg-^2 Arg-^3 Pro-^4 Tyr-^5 -Ile-^6 Leu-OH [(2)]”, the pIC50 in data set [1] was 7.87. The enzymatic stability entry in data set [2] is “sufficient”.

As to “mono-iodo derivative of neurotensin: mono-iodo derivative of neurotensin itself; only tyrosine-3 iodinated with 125-iodide”, in data set [3], the in vivo half-life entry is listed as “only a few minutes”. In addition, the Kd is 0.26 nM in data set [4] (binding to human brain neurotensin receptors) and 0.2 nM in data set [5].

As to “monoiodo-[Trp^11 ]-neurotensin (QLYENKPRRPWIL; Neurotensin 125I on Tyr3; UniProt P30990 151-163, looked up, variant Y11W) [monoiodo-[Trp11]-neurotensin, neurotensin analogue with tyrosine-11 replaced by tryptophan, mono-iodinated with 125-iodide on tyrosine-3]”, the in vivo half-life entry in data set [3] is given as “only a few minutes”. For the same substance, the “affinity of neurotensin receptors in human brain” value in data set [4] (preliminary experiments, Sadoul et al. 1984) was “low affinity”. Also, the Kd in data set [5] is 0.1 nM.

As a reminder, the pIC50 is the IC50 on a negative log10 scale, so that one unit is a factor of ten. Usually Kd stands for the equilibrium constant for the complex coming apart.
